Data on eight molecules can be found in US20210214368A1, “COMPOUNDS FOR THIOL-TRIGGERED COS AND/OR H2S RELEASE AND METHODS OF MAKING AND USING THE SAME” (University of Oregon, priority 2018, published 2021).

Data set [1] is described as follows: Thiol-triggered H2S release in PBS containing CA (MB assay). Particulars: for GSH-triggered H2S release: PBS containing GSH and CA. How it is done: To evaluate thiol effects on COS/H2S release from cyclic perthiocarbamate compound embodiments, compound 306a (50 μM) was incubated in PBS (pH 7.4, 10 mM) containing Cys or GSH (up to 4.0 mM) and CA (25 μg/mL) and H2S release was monitored by MB assay. […] Additionally, other thiol triggers, such as cysteine, homocysteine, and N-acetyl cysteine, were combined with compound 306a to evaluate if they would trigger the compound to release H2S.
In this example, GSH-triggered H2S release from compound 900 was evaluated. […] To improve the H2S releasing capacity of ATB-346, compound 900 was made by reacting ATB-346 with chlorocarbonyl sulfenyl chloride reagent (see Scheme 9). The resultant compound 900 was then added to PBS containing GSH and CA.
Release of H2S from compound 404c (25 μM) in the presence of L-cysteine or reduced glutathione (GSH) (500 μM, 20 equiv.) measured by the spectrophotometric methylene blue assay, with results shown in FIG. 17.
In this example, additional compounds, such as cyclic sulfenyl thiocarbamate compounds 306a-306e, were evaluated for their ability to release H2S upon exposure to a biological thiol, cysteine.
With the hybrid NSAID in hand, COS/H2S release in aqueous buffer was evaluated.

The subject of data set [2] is porcine liver esterase (PLE). Kind of data set: Esterase stability of the sulfenyl thiocarbonate group (fluorescence). In kind it is in vitro ADME. Particulars: compound 10 μM, PLE 1 U/mL, 2-hour incubation. How it is done: Compound 202a also (10 μM) was incubated with RSONs (100 μM), such as H2O2, ClO^−, O2^−, TBHP, Ser, Lys, Gly, GSSG, and GSNO, and COS/H2S release was monitored by tracking the fluorescein formation. […] Because the carbonate functional group may be sensitive to esterase-catalyzed hydrolysis, the esterase stability of the sulfenyl thiocarbonate group also was evaluated by incubating compound 202a (10 μM) with porcine liver esterase (PLE, 1 U/mL).

Data set [3] is described as follows: Cys-triggered fluorescence turn on in PBS. Particulars: for fluorescence response to Cys: compound 10 μM, Cys 100 μM, PBS pH 7.4. How it is done: Representative Measurement of Fluorescence Intensity of Compound Embodiments—A freshly prepared compound 202a stock solution (3.00 μL, 10.0 mM in DMSO) was added to 3.00 mL of PBS (Ph 7.40, 10.0 Mm) containing CA (25.0 μg/mL) in a quartz fluorescence cuvette. A Cys stock solution (10.0 mM) was then added to reach the desired working concentration. The reaction solution was excited at 490 nm and the fluorescence intensity (500-650 nm) was measured and recorded using a Quanta Master 40 spectrofluorometer.
In this example, it was determined that Cys-induced compound 202a activation can be monitored by tracking the fluorescein formation and accompanied fluorescence response, and, in some embodiments, the reaction proceeds more quickly when higher concentrations of thiols are added. Time-dependent fluorescence spectra (FIG. 2A) and UV-vis spectra (FIG. 2B) of a particular compound embodiment, compound 202a, (10 μM) in PBS buffer (pH 7.4, 10 mM) containing Cys (100 μM) and CA (25 μg/mL) were obtained using a fluorescence spectrometer. […] Fluorescein formation was also confirmed by UV-vis spectroscopy under the identical conditions (FIG. 2B). Specifically, a freshly prepared compound 202a stock solution (3.00 μL, 10.0 mM in DMSO) was added to 3.00 mL of PBS (pH 7.40, 10.0 mM) containing CA (25.0 μg/mL) in a quartz UV cuvette. A Cys stock solution (30.0 μL, 10.0 mM in H2O) was then added. The absorbance (350-600 nm) was measured for 3 hours using a Cary 100 spectrometer. A Cys-dependent fluorescence enhancement was observed when treating compound 202a (10 μM) with increasing concentrations of Cys (1-20 equiv.), indicating a high sensitivity of compound 202a towards Cys. […] In addition, to confirm the H2S delivery from compound 202a, compound 202a (10 μM) was treated with Cys (100 μM) in PBS containing CA (25 μg/mL) and quantified H2S release using the MB assay. […] Optical measurement conditions were as follows: […], and slit width=0.3 mm.

For data set [4], the system named is RAW 264.7 cells. Kind of data set: Cytotoxicity in RAW 264.7 cells (CCK-8). The class given is cell-based. Particulars: concentrations up to 25 μM, 2 hours. How it is done:
In this example, cytoprotective activity of compound 202a against LPS-induced inflammation was evaluated. […] The compounds of the present disclosure were therefore evaluated to determine their anti-inflammatory activities due to H2S release. RAW 264.7 cells were incubated with compound 202a (0-25 μM) for 2 hours, followed by a 24-hour incubation with lipopolysaccharide (LPS, 0.5 μg/mL) to trigger the inflammatory response. The inflammation event usually results in the NO generation, which can be monitored by measuring nitrite (NO2—) accumulation. […] In particular, confluent RAW 264.7 cells were incubated in FBS-free DMEM containing vehicle (0.5% DMSO), compound 202a, BnSH, and compound 204 (10.0-100 μM) for 2 hours in a 96-well plate. The culture media were then removed and 100 μL of FBS-free DMEM containing 10% CCK-8 solution was added to each well, and cells were incubated for 2 hours at 37° C. The absorbance at 450 nm was measured by using a microplate reader (FIG. 9). The cell viability was measured and normalized to the vehicle group. The results are expressed as mean t SEM (n=6).

Data set [5] in a line: Selectivity of fluorescence turn on to cellular RSONs and thiols. Particulars: 10 μM, PBS at physiological pH, 2 hours. On the procedure:
Representative Procedure for Evaluating Selectivity of Compound EmbodIments to Cellular RSONs—To 3.00 mL of PBS was added a stock solution of compound 202a (3.00 μL, 10.0 mM in DMSO), followed by the addition of RSON stock solution (30.0 μL, 10.0 mM in H2O). After 2 hours of incubation at room temperature, the solution was excited at 490 nm and the fluorescence intensity (500-650 nm) was measured and recorded by using a Quanta Master 40 spectrofluorometer. For the NEM-pretreated group, NEM (30.0 μL, 1.00 M) was added to PBS (3.00 mL) containing CA (25.0 μg/mL) and Cys (100 μM). The solution was then incubated for 1 hour before adding the compound 202a stock solution (3.00 μL, 10.0 mM in DMSO).
In this example, fluorescence turn on of compound 202a (10 μM) in the presence of cellular reactive sulfur, oxygen, and nitrogen species (RSONs) (100 μM) was evaluated. […] Compound 202a (10 μM) was incubated with GSH, homocysteine (Hcy), N-acetyl cysteine (NAC), penicillamine (PEN), or bovine serum albumin (BSA) (100 μM), in PBS buffer (pH 7.4, 10 mM) containing CA (25 μg/mL) and the fluorescent intensity was measured after 2 hours. […]
Compound 202a also (10 μM) was incubated with RSONs (100 μM), such as H2O2, ClO^−, O2^−, TBHP, Ser, Lys, Gly, GSSG, and GSNO, and COS/H2S release was monitored by tracking the fluorescein formation. […]

Data set [6] deals with HeLa cells. Description: Cytotoxicity in HeLa cells (CCK-8). Particulars: 6.25-50.0 μM, 30 minutes. The class given is cell-based. On the procedure:
In this example, H2S delivery from compound 202a in HeLa cells was evaluated. To determine whether compound embodiments of the present disclosure can be activated to release COS/H2S in cellular environment, HeLa cells were treated with compound 202a under different conditions. HeLa cells were treated with compound 202a (50 μM) or compound 204 (50 μM) and H2S release was monitored using C7-Az, a H2S-responsive fluorescent probe. […] To confirm that compound 202a was not cytotoxic, confluent HeLa cells were incubated in FBS-free DMEM containing vehicle (0.5% DMSO), and compound 202a (6.25-50.0 μM) for 30 minutes in a 96-well plate. The culture media were then removed and 100 μL of FBS-free DMEM containing 10% CCK-8 solution was added to each well, and cells were incubated for 2 hours at 37° C. The absorbance at 450 nm was measured by using a microplate reader (see FIG. 8). The cell viability was measured and normalized to the vehicle group. The results are expressed as mean t SEM (n=6).

The nature of data set [7]: Spectroscopic properties in PBS buffer (pH 7.4, 10 mM). In kind it is physicochemical. Particulars: PBS (pH 7.4, 10 mM). How it is done:
In this example, the spectroscopic properties in PBS buffer (pH 7.4, 10 mM) of compounds 202a-202d, and control compound 204. Compounds 202a-202c and control compound 204 were not absorptive in the visible region and are all these compounds were not fluorescent because the fluorescein unit is locked in the closed lactone form.

Data set [8] concerns RAW 264.7 cells. Description: Anti-inflammatory activity: LPS-induced NO2- accumulation (Griess). The class given is cell-based. Particulars: pretreatment 25 μM for 2 hours, then LPS 0.500 μg/mL 24 hours.
Description: Representative Procedure for Determining Anti-Inflammatory Activities of Compound Embodiments and Control Compounds—Macrophage RAW 264.7 cells were seeded in a 24-well plate (5×10^5 cells/well) containing 0.500 mL of DMEM and incubated at 37° C. under 5% CO2 for 24 hours. The confluent cells were washed with PBS and incubated with either compound 202a (0-25.0 μM), or GYY4137 (25.0 μM) at 37° C. for 2 hours. Compounds were then removed by washing cells with PBS and these pretreated cells were incubated in FBS-free DMEM containing LPS (0.500 μg/mL) for 24 hours. NO2— levels were measured by using a Griess Reagent Kit.
For data set [9], the system named is HeLa cells. Description: Cellular imaging of H2S delivery in HeLa cells with C7-Az probe. In kind it is cell-based. Particulars: compound 50 μM, C7-Az 50 μM, 30 minutes. On the procedure: HeLa cells were then plated in poly-D-lysine coated plates (MatTek) containing 2.00 mL of DMEM and incubated at 37° C. under 5% CO2 for 24 hours. The confluent cells were washed with PBS and then co-incubated with NucRed nuclear dye (2 drops), C7-Az (50.0 μM), and compound 202a (50.0 μM) for 30 minutes. Prior to imaging, the cells were washed with PBS and bathed in 2.00 mL of PBS. Cell imaging was performed on a Leica DMi8 fluorescent microscope. […] To confirm that compound 202a was not cytotoxic, confluent HeLa cells were incubated in FBS-free DMEM containing vehicle (0.5% DMSO), and compound 202a (6.25-50.0 μM) for 30 minutes in a 96-well plate. The culture media were then removed and 100 μL of FBS-free DMEM containing 10% CCK-8 solution was added to each well, and cells were incubated for 2 hours at 37° C. The absorbance at 450 nm was measured by using a microplate reader (see FIG. 8). The cell viability was measured and normalized to the vehicle group. The results are expressed as mean t SEM (n=6).

Data set [10] concerns RAW 264.7 cells. Particulars: 100-1000 μM and 24-hour incubation; cited from earlier work.

With `COc1ccc2cc(C(C)C(=O)Oc3ccc(C(N)=S)cc3)ccc2c1` (centres unmarked) [ATB-346, reference compound], the “GSH-triggered H2S release” value in data set [1] is “not detected”.

Turning to `O=C(Oc1ccc2c(c1)Oc1cc(OC(=O)SSCc3ccccc3)ccc1C21OC(=O)c2ccccc21)SSCc1ccccc1` [Compound 202a], the “fluorescence with porcine liver esterase” value in [2] is listed as “slight fluorescence turn on”. In addition, in [3] (compound 10 μM in PBS, no Cys), the “fluorescent signal in the absence of Cys (stability in aqueous buffer)” value was “No fluorescent signal was observed”. For the same molecule, in the data set with RAW 264.7 cells [4], the “cytotoxicity in RAW 264.7 cells” value is on record as “did not induce cytotoxicity”. For the same molecule, the “stability in PBS in the absence of thiols” value in data set [5] is “stable”. Also, in the data set on HeLa cells [6], the “cytotoxicity in HeLa cells” value is on record as “not cytotoxic”.

As to `O=C(Oc1ccc2c(c1)Oc1cc(O)ccc1C21OC(=O)c2ccccc21)SSCc1ccccc1` (centres unmarked) [Compound 202d], the “fluorescence response to Cys” value in data set [3] is “minimal fluorescence enhancement”. Also, in [7], the Φ came out at 0.11 ± 0.01, the ε is on record as 27,300 ± 2500 M^−1cm^−1, the λem stood at 514 nm and the λmax turned out to be 449 nm.

As to `O=C(Oc1ccc2c(c1)Oc1cc(OC(=O)SCc3ccccc3)ccc1C21OC(=O)c2ccccc21)SCc1ccccc1` [Compound 204], the “fluorescence response to Cys” value in [3] is given as “No fluorescence response”. Further, the “anti-inflammatory activity at 25 μM (NO2− production)” value (“anti-inflammatory activity at 25 μM” below) in the data set with RAW 264.7 cells [8] is given as “none of these species exhibited anti-inflammatory activities”. The “C7-Az (H2S probe) fluorescence in HeLa cells” value in the data set with HeLa cells [9] is “failed to turn on the fluorescence”.

As to `O=c1ssc(=O)n1-c1ccc(Cl)cc1` [Compound 404c], in data set [1] (compound 25 μM, L-cysteine or GSH 500 μM (20 equiv.), CA, MB assay), the “COS released on reaction with thiols” value is on record as “two equivalents of COS”.

Turning to `COc1ccc2cc(C(C)C(=O)Oc3ccc(-c4nc(=O)ss4)cc3)ccc2c1` (centres unmarked) [Compound 900], the “GSH-triggered H2S release” value in data set [1] was “promising H2S release was observed”. Further, in data set [1] (compound 50 μM, PBS pH 7.4, CTAB 1.0 mM, CA 25 μg/mL, Cys or GSH 1.0 mM), the “thiol-triggered H2S release in buffer with CTAB” value is on record as “thiol-triggered H2S release was immediately observed”.

With `C1COCCN1.COc1ccc(P(=S)(S)N2CCOCC2)cc1` (centres unmarked) [GYY4137], the “anti-inflammatory activity at 25 μM” value in the data set on RAW 264.7 cells [8] is listed as “such cytoprotection was not observed”. In the data set on RAW 264.7 cells [10], the “anti-inflammatory effects at higher concentration and longer incubation” value is recorded as “anti-inflammatory effects”.

Consider `SCc1ccccc1` [benzyl mercaptan], for which, in the data set on RAW 264.7 cells [8], the “anti-inflammatory activity at 25 μM” value was “none of these species exhibited anti-inflammatory activities”.
